Source: patent US20250195521A1 (Revolution Medicines, Inc., priority 2020, published 2025)
One block for each compound: values may come before it.

Tests used:
[1] = target: KRAS G12V binding to BRAF RBD (Homo sapiens (Human), UniProt P01116+P62937, G12V); test: Ras-Raf disruption/FRET/MOA assay, KRAS G12V; type: biochemical; settings: read-out: KRAS G12V FRET IC50
Excerpt: (§1) Note—The following protocol describes a procedure for monitoring disruption of K-Ras G12C(GMP-PNP) binding to BRAF^RBD by a compound of the invention. This protocol may also be executed substituting other Ras proteins or nucleotides.
(§2) The purpose of this biochemical assay was to measure the ability of test compounds to facilitate ternary complex formation between a nucleotide-loaded K-Ras isoform and Cyclophilin A; the resulting ternary complex disrupts binding to a BRAF^RBD construct, inhibiting K-Ras signaling through a RAF effector. Data is reported as IC50 values.
(§3) Compound was present in plate wells as a 10-point 3-fold dilution series starting at a final concentration of 30 μM. After incubation at 25° C. for 3 hours, a mixture of Anti-His Eu—W1024 and anti-GST allophycocyanin was then added to assay sample wells at final concentrations of 10 nM and 50 nM, respectively, and the reaction incubated for an additional 1.5 hours. […] Compounds that facilitate disruption of a K-Ras: RAF complex were identified as those eliciting a decrease in the TR-FRET ratio relative to DMSO control wells.

[2] = target: K-Ras G12C(GMP-PNP) binding to BRAF RBD (Homo sapiens (Human), UniProt P01116+P62937, G12C); test: Disruption of BRAF RBD interaction with K-Ras (FRET / MOA assay), K-Ras G12C; type: biochemical; settings: read-out: KRAS G12C FRET IC50
Procedure, shortened: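 Incubation of compound (up to 30 μM final, 3-fold steps) with GMP-PNP-type loaded Ras isoform, cyclophilin A and BRAF RBD ran 3 h at 25° C, followed by 1.5 h with detection antibodies. Disruption appears as a reduced TR-FRET ratio compared with DMSO controls, expressed as IC50.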

[3] = target: KRAS G12S binding to BRAF RBD (Homo sapiens (Human), UniProt P01116+P62937, G12S); test: Ras-Raf disruption/FRET/MOA assay, KRAS G12S; type: biochemical
Excerpt: as §1, §2, §3

[4] = target: NRAS G12C (Homo sapiens (Human), UniProt P01111+P62937, G12C); test: Ras-Raf disruption/FRET/MOA assay (BRAF RBD, Cyclophilin A); type: biochemical; settings: read-out: NRAS G12C FRET data IC50
Procedure, shortened: (§4)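 First, 25 μM Cyclophilin A, 12.5 nM His6-Ras-GMPPNP and 50 nM GST-BRAF RBD are mixed with diluted compound at pH 7.3. Next, 3 h at 25° C. Then 10 nM anti-His Eu-W1024 plus 50 nM anti-GST allophycocyanin for 1.5 h before TR-FRET reading.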

[5] = target: KRAS G12C (Homo sapiens (Human), UniProt P01116+P62937, G12C); test: as above; type: biochemical; settings: read-out: KRAS G12C FRET IC50
Procedure, shortened: (§5)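 Ras-GMPPNP (12.5 nM), BRAF RBD (50 nM) and 25 μM Cyclophilin A were incubated with compound for 3 h at 25° C, then detected 1.5 h with anti-His Eu and anti-GST APC; IC50 values follow from the reduced TR-FRET ratio.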

[6] = target: KRAS G12D (Homo sapiens (Human), UniProt P01116+P62937, G12D); test: as above; type: biochemical; settings: read-out: KRAS G12D FRET IC50
Procedure, shortened: as §5

[7] = target: NRAS Q61K (Homo sapiens (Human), UniProt P01111+P62937, Q61K); test: as above; type: biochemical
Procedure, shortened: as §4

[8] = target: NRAS Q61R (Homo sapiens (Human), UniProt P01111+P62937, Q61R); test: as above; type: biochemical
Procedure, shortened: as §4

[9] = target: NRAS WT (Homo sapiens (Human), UniProt P01111+P62937); test: as above; type: biochemical
Procedure, shortened: as §4

[10] = target: KRAS G12V (Homo sapiens (Human), UniProt P01116+P62937, G12V); test: as above; type: biochemical; settings: read-out: KRAS G12V FRET IC50
Procedure, shortened: as §5

[11] = target: KRAS G13D (Homo sapiens (Human), UniProt P01116+P62937, G13D); test: as above; type: biochemical; settings: read-out: KRAS G13D FRET data IC50
Procedure, shortened: as §5

[12] = target: KRAS G12S (Homo sapiens (Human), UniProt P01116+P62937, G12S); test: as above; type: biochemical; settings: read-out: KRAS G12S FRET IC50
Procedure, shortened: as §5

[13] = target: KRAS Q61H (Homo sapiens (Human), UniProt P01116+P62937, Q61H); test: as above; type: biochemical
Procedure, shortened: as §5

[14] = target: KRAS G13C (Homo sapiens (Human), UniProt P01116+P62937, G13C); test: as above; type: biochemical; settings: read-out: KRAS G13C FRET IC50
Procedure, shortened: as §5

[15] = target: KRAS WT (Homo sapiens (Human), UniProt P01116+P62937); test: as above; type: biochemical; settings: read-out: KRAS WT FRET data IC50
Procedure, shortened: as §5

[16] = tested on: NCI-H358 (K-Ras G12C); test: CellTiter-Glo cell viability assay, NCI-H358; type: cell-based, human; settings: Homo sapiens, NCI-H358, 120 h, 5-day treatment; read-out: H358 Cell Viability assay data (K-Ras G12C, IC50)
Procedure, shortened: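 NCI-H358 (K-Ras G12C) cells treated with compound dispensed directly into plates. CellTiter-Glo luminescence read on day 5 after ~30 min equilibration to room temperature. Signal normalised to DMSO average ×100, then fitted with a four-parameter logistic model.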

[17] = tested on: Capan-1 cells (K-Ras G12V); test: CellTiter-Glo cell viability, Capan-1; type: cell-based, human; settings: Homo sapiens, CAPAN-1, 120 h, K-Ras G12V, 5-day treatment; read-out: Capan-1 Cell Viability IC50
Procedure, shortened: (§6)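 Compounds dispensed directly onto seeded cells; on day 5 plates equilibrated ~30 min to room temperature and luminescence read. Signal normalized to DMSO average (%) and fitted by four-parameter logistic.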

[18] = target: KRAS WT binding to BRAF RBD (Homo sapiens (Human), UniProt P01116+P62937); test: Ras-Raf disruption/FRET/MOA assay, KRAS WT; type: biochemical
Excerpt: Disruption of B-Raf Ras-binding Domain (BRAF^RBD) Interaction with K-Ras by Compounds of the Invention (also called a FRET assay or an MOA assay)
as §1, §2
as §3, with “In assay buffer containing 25 mM HEPES pH 7.3, 0.002% Tween20, 0.1% BSA, 100 mM NaCl and 5 mM MgCl2, tagless Cyclophilin A, His6-K-Ras-GMPPNP, and GST-BRAF^RBD were combined in a 384-well assay plate at final concentrations of 25 μM, 12.5 nM and 50 nM, respectively. Compound was” for “Compound was”

[19] = tested on: NCI-H358 cells (K-Ras G12C); test: CellTiter-Glo cell viability, NCI-H358; type: cell-based, human; settings: Homo sapiens, NCI-H358, 120 h, K-Ras G12C, 5-day treatment; read-out: H358 Cell Viability IC50
Procedure, shortened: as §6

[20] = target: KRAS G13D binding to BRAF RBD (Homo sapiens (Human), UniProt P01116+P62937, G13D); test: Ras-Raf disruption/FRET/MOA assay, KRAS G13D; type: biochemical
Procedure, shortened: (§7)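 Cpd 10-pt 3-fold dilution, top 30 μM final; Ras/CypA/BRAF RBD mix 3 h, 25° C. Add anti-His Eu-W1024 10 nM + anti-GST APC 50 nM final, 1.5 h. Readout TR-FRET ratio decrease vs DMSO → IC50.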

[21] = target: NRAS G12C binding to BRAF RBD (Homo sapiens (Human), UniProt P01111+P62937, G12C); test: Ras-Raf disruption/FRET/MOA assay, NRAS G12C; type: biochemical
Procedure, shortened: as §7

[22] = tested on: K-Ras G12C (NCI-H358 cells); test: Potency assay: pERK in NCI-H358 cells; type: cell-based, human; settings: Homo sapiens; NCI-H358 cells, 4 hours; read-out: pERK EC50 (H358 KRAS G12C)
Procedure, shortened: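 Cells plated the day before were exposed for 4 h at 37° C, 5% CO2 to a 10-point, 3-fold DMSO dilution series (10 mM top stock), in duplicate. Phospho-ERK was read by AlphaLISA SureFire Ultra or by In-Cell Western with DRAQ5 DNA stain, and IC50 came from a 4-parameter sigmoidal fit.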

KRAS G12V binding to BRAF RBD, sequence (P01116 other isoform, or with tags, fused parts or gaps G12V): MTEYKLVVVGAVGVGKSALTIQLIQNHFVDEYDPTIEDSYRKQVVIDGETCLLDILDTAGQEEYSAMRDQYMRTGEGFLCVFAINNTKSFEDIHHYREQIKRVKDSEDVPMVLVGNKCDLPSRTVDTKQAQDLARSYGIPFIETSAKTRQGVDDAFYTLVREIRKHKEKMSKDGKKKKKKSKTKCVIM
KRAS G12V binding to BRAF RBD, sequence (P62937 whole entry): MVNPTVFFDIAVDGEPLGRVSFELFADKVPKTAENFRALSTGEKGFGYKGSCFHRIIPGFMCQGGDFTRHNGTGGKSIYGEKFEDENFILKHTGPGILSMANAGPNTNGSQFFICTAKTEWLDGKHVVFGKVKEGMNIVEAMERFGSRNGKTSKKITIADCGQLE
K-Ras G12C(GMP-PNP) binding to BRAF RBD, sequence (P01116 other isoform, or with tags, fused parts or gaps G12C): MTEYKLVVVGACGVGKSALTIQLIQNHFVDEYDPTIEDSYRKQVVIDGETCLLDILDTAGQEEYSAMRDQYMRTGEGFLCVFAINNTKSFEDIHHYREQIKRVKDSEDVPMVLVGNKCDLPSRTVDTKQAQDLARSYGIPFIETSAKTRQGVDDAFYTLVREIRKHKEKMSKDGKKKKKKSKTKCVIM
K-Ras G12C(GMP-PNP) binding to BRAF RBD, sequence (P62937 whole entry, canonical isoform): as the sequence (P62937 whole entry) above
KRAS G12S binding to BRAF RBD, sequence (P01116 other isoform, or with tags, fused parts or gaps G12S): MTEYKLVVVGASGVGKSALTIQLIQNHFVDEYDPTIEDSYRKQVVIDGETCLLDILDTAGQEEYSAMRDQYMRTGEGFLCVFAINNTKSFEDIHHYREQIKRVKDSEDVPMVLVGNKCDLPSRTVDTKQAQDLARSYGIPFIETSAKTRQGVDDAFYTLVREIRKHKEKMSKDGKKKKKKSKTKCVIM
KRAS G12S binding to BRAF RBD, sequence (P62937 whole entry): as the sequence (P62937 whole entry) above
KRAS G13D binding to BRAF RBD, sequence (P01116 other isoform, or with tags, fused parts or gaps G13D): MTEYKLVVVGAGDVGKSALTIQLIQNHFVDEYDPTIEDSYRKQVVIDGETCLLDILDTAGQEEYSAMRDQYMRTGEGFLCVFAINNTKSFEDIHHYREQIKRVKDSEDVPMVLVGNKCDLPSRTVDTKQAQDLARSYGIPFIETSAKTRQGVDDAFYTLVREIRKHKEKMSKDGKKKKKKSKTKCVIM
KRAS G13D binding to BRAF RBD, sequence (P62937 whole entry): as the sequence (P62937 whole entry) above
KRAS G13D, sequence (P01116 other isoform, or with tags, fused parts or gaps G13D): as the sequence (P01116 other isoform, or with tags, fused parts or gaps G13D) above
KRAS G13D, sequence (P62937 whole entry): as the sequence (P62937 whole entry) above
KRAS G12V, sequence (P01116 other isoform, or with tags, fused parts or gaps G12V): as the sequence (P01116 other isoform, or with tags, fused parts or gaps G12V) above
KRAS G12V, sequence (P62937 whole entry): as the sequence (P62937 whole entry) above
KRAS WT binding to BRAF RBD, sequence (P01116 other isoform, or with tags, fused parts or gaps): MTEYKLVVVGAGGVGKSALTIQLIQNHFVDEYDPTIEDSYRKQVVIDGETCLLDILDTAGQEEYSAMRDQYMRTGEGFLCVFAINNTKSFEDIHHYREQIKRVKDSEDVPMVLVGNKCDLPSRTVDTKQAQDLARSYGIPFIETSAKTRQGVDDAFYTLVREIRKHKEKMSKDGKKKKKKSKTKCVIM
KRAS WT binding to BRAF RBD, sequence (P62937 whole entry, the tested form may be a part): as the sequence (P62937 whole entry) above
KRAS WT, sequence (P01116 other isoform, or with tags, fused parts or gaps): as the sequence (P01116 other isoform, or with tags, fused parts or gaps) above
KRAS WT, sequence (P62937 whole entry): as the sequence (P62937 whole entry) above
NRAS G12C binding to BRAF RBD, sequence (P01111 whole entry G12C): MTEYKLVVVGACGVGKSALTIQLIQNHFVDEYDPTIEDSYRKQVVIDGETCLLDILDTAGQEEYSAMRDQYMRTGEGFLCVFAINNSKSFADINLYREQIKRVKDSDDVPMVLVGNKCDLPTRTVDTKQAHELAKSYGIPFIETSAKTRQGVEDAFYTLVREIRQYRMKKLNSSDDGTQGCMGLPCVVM
NRAS G12C binding to BRAF RBD, sequence (P62937 whole entry): as the sequence (P62937 whole entry) above
NRAS G12C, sequence (P01111 whole entry G12C): as the sequence (P01111 whole entry G12C) above
NRAS G12C, sequence (P62937 whole entry): as the sequence (P62937 whole entry) above
KRAS G12S, sequence (P01116 other isoform, or with tags, fused parts or gaps G12S): as the sequence (P01116 other isoform, or with tags, fused parts or gaps G12S) above
KRAS G12S, sequence (P62937 whole entry): as the sequence (P62937 whole entry) above
NRAS Q61R, sequence (P01111 whole entry Q61R): as the sequence (P01111 whole entry G12C) above, with C12G, Q61R counted along it
NRAS Q61R, sequence (P62937 whole entry): as the sequence (P62937 whole entry) above
KRAS Q61H, sequence (P01116 other isoform, or with tags, fused parts or gaps Q61H): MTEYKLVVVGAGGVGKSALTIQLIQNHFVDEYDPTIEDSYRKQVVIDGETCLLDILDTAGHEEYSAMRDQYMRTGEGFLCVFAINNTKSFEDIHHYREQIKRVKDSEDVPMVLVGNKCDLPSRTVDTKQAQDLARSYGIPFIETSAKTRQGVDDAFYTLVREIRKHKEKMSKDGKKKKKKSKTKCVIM
KRAS Q61H, sequence (P62937 whole entry): as the sequence (P62937 whole entry) above
NRAS Q61K, sequence (P01111 whole entry Q61K): as the sequence (P01111 whole entry G12C) above, with C12G, Q61K counted along it
NRAS Q61K, sequence (P62937 whole entry): as the sequence (P62937 whole entry) above

- IC50 [1]: 10 to 100 nM
- IC50 [2]: < 10 nM
- IC50 [3]: 10 to 100 nM
SMILES: CCn1c(-c2cccnc2[C@H](C)OC)c2c3cc(ccc31)-c1cc(O)cc(c1)C[C@H](NC(=O)C(C1CC1)C1CC1)C(=O)N1CCC[C@H](N1)C(=O)OCC(C)(C)C2 [Compound A184]

- IC50 [1]: 10 to 100 nM
- IC50 [4]: 10 to 100 nM
- IC50 [5]: 10 to 100 nM
- IC50 [6]: 100 to 1000 nM
- IC50 [7]: 100 to 1000 nM
- IC50 [8]: 100 to 1000 nM
- IC50 [9]: 100 to 1000 nM
- IC50 [10]: 10 to 100 nM
- IC50 [11]: 100 to 1000 nM
- IC50 [12]: 100 to 1000 nM
- IC50 [13]: 100 to 1000 nM
- IC50 [14]: 100 to 1000 nM
- IC50 [15]: 100 to 1000 nM
- IC50 [16]: 10 to 100 nM
- IC50 [18]: 10 to 100 nM
- IC50 [19]: 100 to 1000 nM
- IC50 [2]: 10 to 100 nM
- IC50 [3]: 10 to 100 nM
SMILES: CCn1c(-c2cccnc2[C@H](C)OC)c2c3cc(ccc31)-c1csc(n1)C[C@H](NC(=O)N1CC[C@@H]1COC)C(=O)N1CCC[C@H](N1)C(=O)OCC(C)(C)C2 [Compound A264]
- IC50 [17]: 100 to 1000 nM

- IC50 [1]: 10 to 100 nM
- IC50 [20]: 100 to 1000 nM
- IC50 [21]: < 10 nM
- IC50 [16]: < 10 nM
- EC50 [22]: < 5000 nM
- IC50 [2]: < 10 nM
- IC50 [3]: 10 to 100 nM
SMILES: CCn1c(-c2cccnc2[C@H](C)OC)c2c3cc(ccc31)-c1cc(O)cc(c1)C[C@H](NC(=O)[C@H](C(C)C)N(C)C(=O)[C@H]1CCC(C(=O)C#CCOC)C1)C(=O)N1CCC[C@H](N1)C(=O)OCC(C)(C)C2 (some centres unmarked) [Compound A266]
